According to patent US11427586B2, “1,2,4-oxadiazole derivatives as liver X receptor agonists” (NOVARTIS AG, priority 2019, dated 2022):
Where two headings read alike, the source gives them in different places.

Columns and labels:
SCD1 = assay: Measurement of SCD1 expression in SZ95-SCD1-HiBit cells (HiBiT assay); type: cell-based; settings: Homo sapiens, 48 h; for EC50: SCD1 protein production, luminescence, initial dilution 1:3 in DMSO, read-out: HiBit EC50
SZ95 sebocytes = assay: Sentinel Lipid Assay (SLA), desaturation index in SZ95 sebocytes; type: cell-based; settings: Homo sapiens, 72 h; for EC50: desaturation index, lowest dose used 4.6 nM, read-out: SLA EC50
Outline: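 SZ95 human sebocytes on fibronectin-coated plates, dosed 72 h at 37 °C with 1:3 dilutions from 10 μM; lipids extracted with deuterated triglyceride internal standards and quantified by LC-MS/MS (MRM) as 11 sentinel lipids. Desaturation index from elastic-net coefficients, normalized to DMSO; Amax relative to a reference LXR agonist.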

[1] = normalized Amax based on the reference compound Amax of 100%, read-out: HiBit Normalized Amax
[2] = SZ95-SCD1-HiBit cells, compared to reference compound, read-out: HiBit Amax
[3] = normalized Amax based on the reference compound Amax of 100%, read-out: SLA Normalized Amax
[4] = SZ95 cells, compared to reference compound, read-out: SLA Amax

SMILES | EC50 (SCD1; SZ95-SCD1-HiBit cells) [nM] | EC50 (SZ95 sebocytes; SZ95 cells) [nM] | Emax (SCD1; [1]) [%] | Emax (SCD1; [2]) [%] | Emax (SZ95 sebocytes; [3]) [%] | Emax (SZ95 sebocytes; [4]) [%]
CC(C)CS(=O)(=O)c1ccccc1Oc1ccc(-c2noc(CN3C(=O)N(CCN4CCOCC4)C(C)(CO)C3=O)n2)cc1C(F)(F)F (stereo not drawn) [Compound 46, 5-(hydroxymethyl)-3-((3-(4-(2-(isobutylsulfonyl)phenoxy)-3-(trifluoromethyl)phenyl)-1,2,4-oxadiazol-5-yl)methyl)-5-methyl-1-(2-morpholinoethyl)imidazolidine-2,4-dione] | 6.06 | ≤ 4.6 | 98 | 93.2 | 170 | 163
CC(C)CS(=O)(=O)c1ccccc1Oc1ccc(-c2noc(CN3C(=O)N(CCN4CCOCC4)C(C)(C)C3=O)n2)cc1Cl [Compound 49, 3-((3-(3-chloro-4-(2-(isobutylsulfonyl)phenoxy)phenyl)-1,2,4-oxadiazol-5-yl)methyl)-5,5-dimethyl-1-(2-morpholinoethyl)imidazolidine-2,4-dione] | 11.9 | 40.6 | 74.6 | 70.9 | 114 | 110
CC(C)CS(=O)(=O)c1ccccc1Oc1ccc(-c2noc(CN3C(=O)N(CCCN4CCCC4)C(C)(C)C3=O)n2)cc1C(F)(F)F [Compound 50b, 3-((3-(4-(2-(isobutylsulfonyl)phenoxy)-3-(trifluoromethyl)phenyl)-1,2,4-oxadiazol-5-yl)methyl)-5,5-dimethyl-1-(3-(pyrrolidin-1-yl)propyl)imidazolidine-2,4-dione] | 29.8 | 23.7 | 67.1 | 63.8 | 60.6 | 58.2
CC(C)CS(=O)(=O)c1ccccc1Oc1ccc(-c2noc(CN3C(=O)N(Cc4ccccn4)C(C)(C)C3=O)n2)cc1C(F)(F)F [Compound 51, 3-((3-(4-(2-(isobutylsulfonyl)phenoxy)-3-(trifluoromethyl)phenyl)-1,2,4-oxadiazol-5-yl)methyl)-5,5-dimethyl-1-(pyridin-2-ylmethyl)imidazolidine-2,4-dione] | 12.2 | ≤ 4.6 | 88.7 | 84.4 | 120 | 116
COCCS(=O)(=O)c1ccccc1Oc1ccc(-c2noc(CN3C(=O)N(CC4CC4)C(C)(C)C3=O)n2)cc1C(F)(F)F [Compound 54, 1-(cyclopropylmethyl)-3-((3-(4-(2-((2-methoxyethyl)sulfonyl)phenoxy)-3-(trifluoromethyl)phenyl)-1,2,4-oxadiazol-5-yl)methyl)-5,5-dimethylimidazolidine-2,4-dione] | 3.86 | ≤ 4.6 | 84.9 | 80.7 | 157 | 151
CC1(C)C(=O)N(Cc2nc(-c3ccc(Oc4ccccc4S(C)(=O)=O)c(C(F)(F)F)c3)no2)C(=O)N1CCN1CCOCC1 [Compound 55, 5,5-dimethyl-3-((3-(4-(2-(methylsulfonyl)phenoxy)-3-(trifluoromethyl)phenyl)-1,2,4-oxadiazol-5-yl)methyl)-1-(2-morpholinoethyl)imidazolidine-2,4-dione] | 4.43 | ≤ 4.6 | 91.6 | 87.1 | 161 | 154
COCCN(CCOC)CCS(=O)(=O)c1ccccc1Oc1ccc(-c2noc(CN3C(=O)N(CCN4CCOCC4)C(C)(C)C3=O)n2)cc1C(F)(F)F [Compound 61, 3-((3-(4-(2-((2-(bis(2-methoxyethyl)amino)ethyl)sulfonyl)phenoxy)-3-(trifluoromethyl)phenyl)-1,2,4-oxadiazol-5-yl)methyl)-5,5-dimethyl-1-(2-morpholinoethyl)imidazolidine-2,4-dione] | 9.1 | ≤ 4.6 | 78.9 | 75 | 178 | 171

Now those with a lower EC50 (SCD1; SZ95-SCD1-HiBit cells), led by results:

EC50 (SCD1; SZ95-SCD1-HiBit cells) [nM] | EC50 (SZ95 sebocytes; SZ95 cells) [nM] | SMILES | Emax (SCD1; [1]) [%] | Emax (SCD1; [2]) [%] | Emax (SZ95 sebocytes; [3]) [%] | Emax (SZ95 sebocytes; [4]) [%]
0.728 | ≤ 4.6 | O=C1N(Cc2nc(-c3ccc(Oc4ccccc4S(=O)(=O)CC(F)(F)F)c(C(F)(F)F)c3)no2)C(=O)C2(CCN(C3CCC3)CC2)N1CCN1CCOCC1 [Compound 47, 8-cyclobutyl-1-(2-morpholinoethyl)-3-((3-(4-(2-((2,2,2-trifluoroethyl)sulfonyl)phenoxy)-3-(trifluoromethyl)phenyl)-1,2,4-oxadiazol-5-yl)methyl)-1,3,8-triazaspiro[4.5]decane-2,4-dione] | 80.5 | 76.6 | 147 | 142
0.053 | ≤ 4.6 | O=C1N(Cc2nc(-c3ccc(Oc4ccccc4S(=O)(=O)CC(F)(F)F)c(C(F)(F)F)c3)no2)C(=O)C2(CCN(C3CCC3)CC2)N1CCC1CCOCC1 [Compound 48, 8-cyclobutyl-1-(2-(tetrahydro-2H-pyran-4-yl)ethyl)-3-((3-(4-(2-((2,2,2-trifluoroethyl)sulfonyl)phenoxy)-3-(trifluoromethyl)phenyl)-1,2,4-oxadiazol-5-yl)methyl)-1,3,8-triazaspiro[4.5]decane-2,4-dione] | 93.5 | 88.9 | 125 | 120
2.91 | ≤ 4.6 | CC(O)CS(=O)(=O)c1ccccc1Oc1ccc(-c2noc(CN3C(=O)N(CCN4CCOCC4)C(C)(C)C3=O)n2)cc1C(F)(F)F (stereo not drawn) [Compound 52, 3-((3-(4-(2-((2-hydroxypropyl)sulfonyl)phenoxy)-3-(trifluoromethyl)phenyl)-1,2,4-oxadiazol-5-yl)methyl)-5,5-dimethyl-1-(2-morpholinoethyl)imidazolidine-2,4-dione] | 79.5 | 75.6 | 119 | 114
0.264 | ≤ 4.6 | CC1(C)C(=O)N(Cc2nc(-c3ccc(Oc4ccccc4S(=O)(=O)CC4CCCCO4)c(C(F)(F)F)c3)no2)C(=O)N1CCN1CCOCC1 (stereo not drawn) [Compound 53, 5,5-dimethyl-1-(2-morpholinoethyl)-3-((3-(4-(2-(((tetrahydro-2H-pyran-2-yl)methyl)sulfonyl)phenoxy)-3-(trifluoromethyl)phenyl)-1,2,4-oxadiazol-5-yl)methyl)imidazolidine-2,4-dione] | 101 | 96.2 | 146 | 140
1.01 | ≤ 4.6 | O=C1N(Cc2nc(-c3ccc(Oc4ccccc4S(=O)(=O)CC4CCCO4)c(C(F)(F)F)c3)no2)C(=O)C2(CCOCC2)N1CCN1CCOCC1 (stereo not drawn) [Compound 56, 1-(2-morpholinoethyl)-3-((3-(4-(2-(((tetrahydrofuran-2-yl)methyl)sulfonyl)phenoxy)-3-(trifluoromethyl)phenyl)-1,2,4-oxadiazol-5-yl)methyl)-8-oxa-1,3-diazaspiro[4.5]decane-2,4-dione] | 76.6 | 72.8 | 187 | 180
0.281 | ≤ 4.6 | COCCS(=O)(=O)c1ccccc1Oc1ccc(-c2noc(CN3C(=O)N(CCN4CCOCC4)C(C)(C)C3=O)n2)cc1C(F)(F)F [Compound 58, 3-((3-(4-(2-((2-methoxyethyl)sulfonyl)phenoxy)-3-(trifluoromethyl)phenyl)-1,2,4-oxadiazol-5-yl)methyl)-5,5-dimethyl-1-(2-morpholinoethyl)imidazolidine-2,4-dione] | 107 | 102 | 167 | 161
